Usually DC50 stands for the midpoint of the concentration-degradation curve. A high value points to degradation only at high concentration.

The results in this text go back to patent US20220315578A1, “BRD9 BIFUNCTIONAL DEGRADERS AND THEIR METHODS OF USE” (NOVARTIS AG, priority 2019, published 2022).

The target of this test is T1, BRD9-GFP (Homo sapiens, UniProt Q9H8M2).
T1 construct: CHYSEL (2A cis-acting hydrolase element) remnant after GFP; mCherry is split off as a separate protein (C); expressed in transfected cells; host or cells: HEK293A cells (Invitrogen R70507), lentiviral transduction with pLenti6-BRD9-GFP-CHYSEL-mCherry, blasticidin selection
T1 sequence (Q9H8M2 1-597): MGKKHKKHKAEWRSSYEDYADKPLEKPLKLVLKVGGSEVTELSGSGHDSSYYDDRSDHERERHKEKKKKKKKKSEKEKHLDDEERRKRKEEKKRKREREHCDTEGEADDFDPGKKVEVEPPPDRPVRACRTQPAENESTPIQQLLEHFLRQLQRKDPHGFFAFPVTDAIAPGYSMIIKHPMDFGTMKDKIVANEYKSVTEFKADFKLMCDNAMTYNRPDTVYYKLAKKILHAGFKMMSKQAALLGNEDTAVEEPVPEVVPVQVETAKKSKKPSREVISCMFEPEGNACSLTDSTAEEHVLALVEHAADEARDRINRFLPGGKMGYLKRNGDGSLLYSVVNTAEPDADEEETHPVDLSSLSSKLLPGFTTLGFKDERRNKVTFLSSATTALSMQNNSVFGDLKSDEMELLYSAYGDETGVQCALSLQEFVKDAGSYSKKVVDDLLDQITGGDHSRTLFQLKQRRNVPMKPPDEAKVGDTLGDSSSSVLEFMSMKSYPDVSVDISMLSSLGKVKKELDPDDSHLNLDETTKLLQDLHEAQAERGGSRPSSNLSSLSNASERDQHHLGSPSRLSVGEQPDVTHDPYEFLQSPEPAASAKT
The test can be described thus: BRD9-GFP protein abundance flow cytometry assay in HEK293A cells. The test is classed as cell-based. The note with it: HEK293A-BRD9-GFP-CHYSEL-mCherry cells; for BRD9 Deg Amax %: 24 h, % protein remaining at the concentration at which maximum degradation is seen; for DC50: 24 h at 37° C., 10-point 1:3 dilution, concentration at which 50% maximal degradation was observed. In outline: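 HEK293A cells stably express bicistronic BRD9-GFP-CHYSEL-mCherry and received 24 h treatment at 37° C with a 10-point, 3-fold dilution series from […], in 0.1% DMSO and duplicate. Median GFP/mCherry ratio of 5,000 single cells by flow cytometry, normalized to mCherry-only cells (0%) and DMSO (100%), gave DC50 and Amax (% protein remaining).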

`CCCCCCn1cc(-c2cc(OC)c(CN3CCC(OC4CCN(C(=O)c5ccc(OC)c(N6CCC(=O)NC6=O)c5)CC4)CC3)c(OC)c2)c2ccncc2c1=O` [Compound E40, 1-(5-(4-((1-(4-(2-Hexyl-1-oxo-1,2-dihydro-2,7-naphthyridin-4-yl)-2,6-dimethoxybenzyl)piperidin-4-yl)oxy)piperidine-1-carbonyl)-2-methoxyphenyl)dihydropyrimidine-2,4(1H,3H)-dione]: the “BRD9 Deg Amax %” value is reported as 10.51% and the DC50 is 29 nM.

For the molecule `CCCCn1cc(-c2ccc(OC3CCN(CC4CCN(C(=O)c5ccc(OC)c(N6CCC(=O)NC6=O)c5)CC4)CC3)cc2)c2ccncc2c1=O` [Compound E42, 1-(5-(4-((4-(4-(2-butyl-1-oxo-1,2-dihydro-2,7-naphthyridin-4-yl)phenoxy)piperidin-1-yl)methyl)piperidine-1-carbonyl)-2-methoxyphenyl)dihydropyrimidine-2,4(1H,3H)-dione], the “BRD9 Deg Amax %” value was 17.34% and the DC50 was determined as 4 nM.

Regarding `CCCCn1cc(-c2ccc(OC3CCN(CC4CCN(C(=O)c5ccc(OC)c(N6CCC(=O)NC6=O)c5)CC4)CC3)c(Cl)c2)c2ccncc2c1=O` [Compound E43, 1-(5-(4-((4-(4-(2-butyl-1-oxo-1,2-dihydro-2,7-naphthyridin-4-yl)-2-chlorophenoxy)piperidin-1-yl)methyl)piperidine-1-carbonyl)-2-methoxyphenyl)dihydropyrimidine-2,4(1H,3H)-dione], the “BRD9 Deg Amax %” value turned out to be 17.45% and half-maximal degradation (DC50) was put at 3 nM.

As for `CCCCn1cc(-c2cc(F)c(CN3CCC(OC4CCN(C(=O)COc5ccc(C)c(N6CCC(=O)NC6=O)c5)CC4)CC3)c(F)c2)c2ccncc2c1=O` [Compound E45, 1-(5-(2-(4-((1-(4-(2-butyl-1-oxo-1,2-dihydro-2,7-naphthyridin-4-yl)-2,6-difluorobenzyl)piperidin-4-yl)oxy)piperidin-1-yl)-2-oxoethoxy)-2-methylphenyl)dihydropyrimidine-2,4(1H,3H)-dione], the “BRD9 Deg Amax %” value was determined as 15.28% and it took 7 nM to reach half-maximal degradation (DC50).

As for `COc1cc(-c2cn(C)c(=O)c3cnccc23)c(OC)cc1CN1CCC(OC2CCN(C(=O)COc3ccc(N4CCC(=O)NC4=O)cc3)CC2)CC1` [Compound E46, 1-(4-(2-(4-((1-(2,5-dimethoxy-4-(2-methyl-1-oxo-1,2-dihydro-2,7-naphthyridin-4-yl)benzyl)piperidin-4-yl)oxy)piperidin-1-yl)-2-oxoethoxy)phenyl)dihydropyrimidine-2,4(1H,3H)-dione], the “BRD9 Deg Amax %” value is 15.69% and the DC50 is 33 nM.

Regarding `CCCCn1cc(-c2cc(OC)c(CCN3CC[C@@H](OC4CCN(C(=O)c5ccc(Cl)c(N6CCC(=O)NC6=O)c5)CC4)[C@H](F)C3)cc2OC)c2ccncc2c1=O` [Compound E47, 1-(5-(4-(((3R,4R)-1-(4-(2-butyl-1-oxo-1,2-dihydro-2,7-naphthyridin-4-yl)-2,5-dimethoxyphenethyl)-3-fluoropiperidin-4-yl)oxy)piperidine-1-carbonyl)-2-chlorophenyl)dihydro-pyrimidine-2,4(1H,3H)-dione], the “BRD9 Deg Amax %” value is recorded as 32.89% and the DC50 is 49 nM.

`CCCn1cc(-c2cc(OC)c(CCN3CCN(CC4CCN(C(=O)c5ccc(Cl)c(N6CCC(=O)NC6=O)c5)CC4)CC3)c(OC)c2)c(C)c(C)c1=O` [Compound E48, 1-(2-chloro-5-(4-((4-(4-(4,5-dimethyl-6-oxo-1-propyl-1,6-dihydropyridin-3-yl)-2,6-dimethoxyphenethyl)piperazin-1-yl)methyl)piperidine-1-carbonyl)phenyl)dihydropyrimidine-2,4(1H,3H)-dione]: the “BRD9 Deg Amax %” value amounted to 15.41% and the DC50 amounted to 2 nM.

Consider `CCCCn1cc(-c2cc(F)c(OC3CCN(CC4CCN(C(=O)c5ccc(OC)c(N6CCC(=O)NC6=O)c5)CC4)CC3)c(F)c2)c2ccncc2c1=O` [Compound E49, 1-(5-(4-((4-(4-(2-butyl-1-oxo-1,2-dihydro-2,7-naphthyridin-4-yl)-2,6-difluorophenoxy)piperidin-1-yl)methyl)piperidine-1-carbonyl)-2-methoxyphenyl)dihydropyrimidine-2,4(1H,3H)-dione], for which the “BRD9 Deg Amax %” value was 19.41% and the DC50 amounted to 7 nM.

As to `CCCCn1cc(-c2cc(OC)c(CCN3CCC(OC4CCN(C(=O)c5ccc(OC)c(N6CCC(=O)NC6=O)c5)CC4)CC3)c(OC)c2)c2ccncc2c1=O` [Compound E50, 1-(5-(4-((1-(4-(2-butyl-1-oxo-1,2-dihydro-2,7-naphthyridin-4-yl)-2,6-dimethoxyphenethyl)-piperidin-4-yl)oxy)piperidine-1-carbonyl)-2-meth-oxyphenyl)dihydro-pyrimidine-2,4(1H,3H)-dione], the “BRD9 Deg Amax %” value was determined as 13.47% and it took 8 nM to reach half-maximal degradation (DC50).

Regarding `CCCCn1cc(-c2cc(F)c(CN3CCC(OC4CCN(C(=O)c5ccc(OC)c(N6CCC(=O)NC6=O)c5)CC4)CC3)c(OC)c2)c2ccncc2c1=O` [Compound E51, 1-(5-(4-((1-(4-(2-butyl-1-oxo-1,2-dihydro-2,7-naphthyridin-4-yl)-2-fluoro-6-methoxybenzyl)-piperidin-4-yl)oxy)piperidine-1-carbonyl)-2-meth-oxyphenyl)dihydro-pyrimidine-2,4(1H,3H)-dione], the “BRD9 Deg Amax %” value came out at 11.66% and the 50% degradation concentration (DC50) worked out at 7 nM.

For `CCCn1cc(-c2cc(F)c(CCN3CCC(OC4CCN(C(=O)c5ccc(Cl)c(N6CCC(=O)NC6=O)c5)CC4)CC3)c(OC)c2)c(C)c(C)c1=O` [Compound E52, 1-(2-Chloro-5-(4-((1-(4-(4,5-dimethyl-6-oxo-1-propyl-1,6-dihydropyridin-3-yl)-2-fluoro-6-methoxyphenethyl)piperidin-4-yl)oxy)piperidine-1-carbonyl)phenyl)dihydropyrimidine-2,4(1H,3H)-dione], the “BRD9 Deg Amax %” value is reported as 14.99% and the DC50 amounted to 4 nM.

Consider `CCCCn1cc(-c2cc(F)c(CCN3CCC(OC4CCN(C(=O)c5ccc(Cl)c(N6CCC(=O)NC6=O)c5)CC4)CC3)c(OC)c2)c2ccncc2c1=O` [Compound E53, 1-(5-(4-((1-(4-(2-butyl-1-oxo-1,2-dihydro-2,7-naphthyridin-4-yl)-2-fluoro-6-methoxyphenethyl)-piperidin-4-yl)oxy)piperidine-1-carbonyl)-2-chlorophenyl)dihydro-pyrimidine-2,4(1H,3H)-dione], for which the “BRD9 Deg Amax %” value was determined as 16.11% and half-maximal degradation (DC50) was put at 4 nM.

`CCCCn1cc(-c2ccc(CN3CCC(OC4CCN(C(=O)c5ccc(OC)c(N6CCC(=O)NC6=O)c5)CC4)CC3)c(F)c2)c2ccncc2c1=O` [Compound E54, 1-(5-(4-((1-(4-(2-butyl-1-oxo-1,2-dihydro-2,7-naphthyridin-4-yl)-2-fluorobenzyl)piperidin-4-yl)oxy)piperidine-1-carbonyl)-2-methoxyphenyl)dihydropyrimidine-2,4(1H,3H)-dione]: the “BRD9 Deg Amax %” value amounted to 18.33% and the DC50 came out at 4 nM.

As to `CCCn1cc(-c2cc(OC)c(CCN3CC[C@@H](OC4CCN(C(=O)c5ccc(Cl)c(N6CCC(=O)NC6=O)c5)CC4)[C@H](F)C3)c(OC)c2)c(C)c(C)c1=O` [Compound E55, 1-(2-chloro-5-(4-(((3R,4R)-1-(4-(4,5-dimethyl-6-oxo-1-propyl-1,6-dihydropyridin-3-yl)-2,6-dimethoxyphenethyl)-3-fluoropiperidin-4-yl)oxy)piperidine-1-carbonyl)phenyl)dihydropyrimidine-2,4(1H,3H)-dione], the “BRD9 Deg Amax %” value is 18.12% and the DC50 turned out to be 5 nM.

As to `CCCCn1cc(-c2cc(F)c(O[C@@H]3CCN(CC4CCN(C(=O)c5ccc(OC)c(N6CCC(=O)NC6=O)c5)CC4)C[C@H]3F)c(F)c2)c2ccncc2c1=O` [Compound E56, 1-(5-(4-(((3R,4R)-4-(4-(2-butyl-1-oxo-1,2-dihydro-2,7-naphthyridin-4-yl)-2,6-difluorophenoxy)-3-fluoropiperidin-1-yl)methyl)piperidine-1-carbonyl)-2-methoxyphenyl)dihydropyrimidine-2,4(1H,3H)-dione], the “BRD9 Deg Amax %” value turned out to be 19.65% and the DC50 came out at 1 nM.
